# Experimental data as given in patent US11597724B2, “Herbicidally active 3-phenylisoxazoline-5-carboxamides of tetrahydro and dihydrofuran carboxylic acids and esters” (Bayer Aktiengesellschaft, priority 2017, dated 2023).
# Columns and labels:
# Type in all cases: in vivo
# [1] = system: Lolium rigidum; assay: Pre-emergence herbicidal activity against LOLRI; conditions: dosage 80 g/ha; for pest or weed control at 80 g/ha: Lolium rigidum, 504 h
# Description: (§1) 1. Pre-Emergence Herbicidal Action and Crop Plant Compatibility Seeds of monocotyledonous and dicotyledonous weed plants and crop plants are placed in plastic or wood fiber pots and covered with soil. The compounds of the invention, formulated in the form of wettable powders (WP) or as emulsion concentrates (EC), are then applied onto the surface of the covering soil as aqueous suspension or emulsion with addition of 0.5% additive at a water application rate of 600 l/ha (converted). After the treatment, the pots are placed in a greenhouse and kept under good growth conditions for the trial plants. After about 3 weeks, the effect of the preparations is scored visually in comparison with untreated controls as percentages. For example, 100% activity=the plants have died, 0% activity=like control plants. LOLRI: Lolium rigidum PHBPU: Pharbitis purpurea
# [2] = system: Hordeum murinum; assay: Pre-emergence herbicidal activity against HORMU; conditions: dosage 80 g/ha; for pest or weed control at 80 g/ha: Hordeum murinum, 504 h
# Description: as §1, with “ECHCG: Echinochloa crus-galli HORMU: Hordeum murinum” for “LOLRI: Lolium rigidum PHBPU: Pharbitis purpurea”
# [3] = system: Echinochloa crus-galli; assay: Pre-emergence herbicidal activity against ECHCG; conditions: dosage 80 g/ha, scored visually after about 3 weeks vs untreated controls (100% = plants have died, 0% = like control plants); for pest or weed control at 80 g/ha: Echinochloa crus-galli, 504 h
# Description: as §1, with “ECHCG: Echinochloa crus-galli HORMU: Hordeum murinum” for “LOLRI: Lolium rigidum PHBPU: Pharbitis purpurea”
SMILES,Pre-emergence herbicidal activity against LOLRI in % [1] [%],Pre-emergence herbicidal activity against HORMU in % [2] [%],Pre-emergence herbicidal activity against ECHCG in % [3] [%],pest or weed control at 80 g/ha [1] [%],pest or weed control at 80 g/ha [3] [%],pest or weed control at 80 g/ha [2] [%]
CC(C)OC(=O)C1CC(NC(=O)C2(C)CC(c3cc(F)cc(F)c3)=NO2)CO1 (stereo not shown) [I-44],100,100,90,–,–,–
"CC1(C(=O)N[C@H]2CO[C@@H](C(=O)OCc3ccccc3)C2)CC(c2cccc(F)c2)=NO1 (mixture of isomers) [I-34, benzyl cis-4-[[(5RS)-3-(3-fluorophenyl)-5-methyl-4H-isoxazole-5-carbonyl]amino]tetrahydrofuran-2-carboxylate]",–,–,–,100,80,–
"COC(=O)[C@H]1C[C@@H](NC(=O)C2(C)CC(c3cc(F)cc(F)c3)=NO2)CO1 (relative stereo) [I-01, methyl cis-4-[[3-(3,5-difluorophenyl)-5-methyl-4H-isoxazole-5-carbonyl]amino]tetrahydrofuran-2-carboxylate]",–,–,–,–,80,–
"CC(C)(C)OC(=O)[C@H]1C[C@@H](NC(=O)C2(C)CC(c3cccc(F)c3)=NO2)CO1 (mixture of isomers) [I-33, tert-butyl cis-4-[[(5RS)-3-(3-fluorophenyl)-5-methyl-4H-isoxazole-5-carbonyl]amino]tetrahydrofuran-2-carboxylate]",–,–,–,–,–,80
COC(=O)C1CC(NC(=O)C2(C)CC(c3cc(F)cc(F)c3)=NO2)CO1 (mixture of isomers) [I-48],100,100,90,–,–,–
"C=C[C@]1(C(=O)N[C@H]2CO[C@@H](C(=O)OC)C2)CC(c2cc(F)cc(F)c2)=NO1 (single isomer, unassigned) [I-12]",–,–,–,100,90,100
"COC(=O)C1COCC1NC(=O)[C@@]1(C)CC(c2cc(F)cc(F)c2)=NO1 (stereo partly drawn) [I-28, methyl 4-[[(5R)-3-(3,5-difluorophenyl)-5-methyl-4H-isoxazole-5-carbonyl]amino]tetrahydrofuran-3-carboxylate]",–,–,–,–,90,–
"C=C[C@]1(C(=O)N[C@H]2CO[C@@H](C(=O)OC(C)(C)C)C2)CC(c2cc(F)cc(F)c2)=NO1 (mixture of isomers) [I-38, tert-butyl cis-4-[[(5S)-3-(3,5-difluorophenyl)-5-vinyl-4H-isoxazole-5-carbonyl]amino]tetrahydrofuran-2-carboxylate]",–,–,–,100,100,90
"C=C[C@]1(C(=O)N[C@H]2CO[C@@H](C(=O)OC(C)C)C2)CC(c2cc(F)cc(F)c2)=NO1 (mixture of isomers) [I-36, isopropyl cis-4-[[(5S)-3-(3,5-difluorophenyl)-5-vinyl-4H-isoxazole-5-carbonyl]amino]tetrahydrofuran-2-carboxylate]",–,–,–,100,100,90
"COC(=O)[C@@]1(OC)C[C@@H](NC(=O)C2(C)CC(c3cccc(F)c3)=NO2)CO1 (stereo partly drawn) [I-47, methyl (2R,4R)-4-[[3-(3-fluorophenyl)-5-methyl-4H-isoxazole-5-carbonyl]amino]-2-methoxytetrahydrofuran-2-carboxylate]",–,–,–,–,–,90
CCOC(=O)C1CC(NC(=O)C2(C)CC(c3cc(F)cc(F)c3)=NO2)CO1 (mixture of isomers) [I-43],100,90,100,–,–,–
"CCOC(=O)[C@H]1C[C@@H](NC(=O)C2(C)CC(c3cccc(F)c3)=NO2)CO1 (mixture of isomers) [I-30, ethyl cis-4-[[(5RS)-3-(3-fluorophenyl)-5-methyl-4H-isoxazole-5-carbonyl]amino]tetrahydrofuran-2-carboxylate]",–,–,–,100,–,90
"C=C[C@]1(C(=O)NC2COCC2C(=O)OC)CC(c2cc(F)cc(F)c2)=NO1 (stereo partly drawn) [I-26, methyl 4-[[(5S)-3-(3,5-difluorophenyl)-5-vinyl-4H-isoxazole-5-carbonyl]amino]tetrahydrofuran-3-carboxylate]",–,–,–,–,90,–
"CC(C)OC(=O)[C@H]1C[C@@H](NC(=O)C2(C)CC(c3cccc(F)c3)=NO2)CO1 (mixture of isomers) [I-32, isopropyl cis-4-[[(5RS)-3-(3-fluorophenyl)-5-methyl-4H-isoxazole-5-carbonyl]amino]tetrahydrofuran-2-carboxylate]",–,–,–,100,–,–
"COC(=O)C1=C[C@H](NC(=O)C2(C)CC(c3cccc(F)c3)=NO2)CO1 (stereo partly drawn) [I-39, methyl (3S)-3-[[3-(3-fluorophenyl)-5-methyl-4H-isoxazole-5-carbonyl]amino]-2,3-dihydrofuran-5-carboxylate]",–,–,–,100,–,100
COC(=O)C1CC(NC(=O)C2(C(C)(F)F)CC(c3cc(F)cc(F)c3)=NO2)CO1 (stereo not shown) [I-49],100,100,100,–,–,–
"C=CC1(C(=O)N[C@H]2CO[C@@H](C(=O)O)C2)CC(c2cc(F)cc(F)c2)=NO1 (relative stereo) [I-21, cis-4-[[3-(3,5-difluorophenyl)-5-vinyl-4H-isoxazole-5-carbonyl]amino]tetrahydrofuran-2-carboxylic acid]",–,–,–,–,100,–
"C=C[C@]1(C(=O)N[C@H]2CO[C@@H](C(=O)OCc3ccccc3)C2)CC(c2cc(F)cc(F)c2)=NO1 (mixture of isomers) [I-37, benzyl cis-4-[[(5S)-3-(3,5-difluorophenyl)-5-vinyl-4H-isoxazole-5-carbonyl]amino]tetrahydrofuran-2-carboxylate]",–,–,–,100,90,100
CC(C)(C)OC(=O)C1CC(NC(=O)C2(C)CC(c3cc(F)cc(F)c3)=NO2)CO1 (mixture of isomers) [I-42],100,100,100,–,–,–
CC1(C(=O)NC2COC(C(=O)OCc3ccccc3)C2)CC(c2cc(F)cc(F)c2)=NO1 (mixture of isomers) [I-45],100,100,100,–,–,–
"COC(=O)C1=C[C@@H](NC(=O)C2(C)CC(c3cccc(F)c3)=NO2)CO1 (stereo partly drawn) [I-46, methyl (3R)-3-[[3-(3-fluorophenyl)-5-methyl-4H-isoxazole-5-carbonyl]amino]-2,3-dihydrofuran-5-carboxylate]",–,–,–,100,90,100
"C=C[C@]1(C(=O)N[C@H]2CO[C@@H](C(=O)OCC)C2)CC(c2cc(F)cc(F)c2)=NO1 (mixture of isomers) [I-35, ethyl cis-4-[[(5S)-3-(3,5-difluorophenyl)-5-vinyl-4H-isoxazole-5-carbonyl]amino]tetrahydrofuran-2-carboxylate]",–,–,–,100,100,100
CC1(C(=O)NC2COC(C(=O)O)C2)CC(c2cc(F)cc(F)c2)=NO1 (mixture of isomers) [I-41],100,100,100,–,–,–
